By IC50 is commonly meant the point on the concentration scale where inhibition reaches its midpoint. A word on the EC50: it is the concentration needed to bring the measured effect to its halfway point.

The values that follow come from patent US8546389B2 (priority 2010, dated 2013).

One test has as its target 1b (BK) NS5bΔ21 (Hepatitis C virus genotype 1b (isolate BK) (HCV), UniProt P26663). Briefly: HCV polymerase inhibition assay, genotype 1b. Conditions: 1b (BK) NS5bΔ21, 33P-GTP incorporation; read-out: 1b polymerase IC50 (range class). The test is classed as biochemical, HCV genotype 1b (BK). In outline: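 Both genotype 1b and 3a enzymes assayed identically: ^33P-GTP incorporation on poly(rC) template, GTP at Km, 50 nM NS5bΔ21, pH 7.5 Tris with 5 mM MgCl2 and MnCl2, 1 h reaction ended by cold EDTA. Filter-bound label counted; IC50 fitted by non-linear regression across three-fold dilution series.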

In test [1] the test system is genotype 1b (Con 1) subgenomic replicon cell line. Briefly: HCV replicon assay, genotype 1b (Renilla luciferase). To be noted: Hepatitis C virus; genotype 1b replicon, 72 hours, luciferase; read-out: genotype 1b EC50 (range class). The format is cell-based, HCV genotype 1b (Con 1). In short, it runs like this:
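Subgenomic replicon cells expressing Renilla luciferase (1b Con1; 1a and 2a lines by the same method) seeded at 7000 cells/well (5000 for 2a) without G418, exposed to 3-fold compound dilutions for 72 h at 37 °C. Luciferase activity measured; EC50 by non-linear regression.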
A general note: A replicon is a self-replicating genome or part of one, used to study replication in cells.

A value given as a limit tells only on which side of the number the result lay.

Sequence of 1b (BK) NS5bΔ21 (P26663 2420-2989): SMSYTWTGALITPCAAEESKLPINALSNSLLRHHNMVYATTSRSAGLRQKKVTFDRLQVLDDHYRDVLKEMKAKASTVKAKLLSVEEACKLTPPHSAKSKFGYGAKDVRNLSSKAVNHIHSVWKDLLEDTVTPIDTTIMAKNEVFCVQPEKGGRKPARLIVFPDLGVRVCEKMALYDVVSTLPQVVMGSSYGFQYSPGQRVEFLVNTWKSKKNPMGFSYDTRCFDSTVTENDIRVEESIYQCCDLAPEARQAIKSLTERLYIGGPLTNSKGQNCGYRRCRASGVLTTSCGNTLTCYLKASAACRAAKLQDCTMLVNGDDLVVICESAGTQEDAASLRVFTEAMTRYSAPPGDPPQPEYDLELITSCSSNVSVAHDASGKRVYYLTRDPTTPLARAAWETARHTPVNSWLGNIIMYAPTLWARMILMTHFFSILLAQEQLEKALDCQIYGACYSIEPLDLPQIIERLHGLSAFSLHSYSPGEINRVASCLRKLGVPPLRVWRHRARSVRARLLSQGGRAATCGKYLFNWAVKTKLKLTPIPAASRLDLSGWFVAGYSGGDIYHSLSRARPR

`CNC(=O)c1c2cc(C3CC3)c(N(CCCC(=O)NS(=O)(=O)C(F)(F)F)S(C)(=O)=O)cc2nn1-c1ccc(Br)cc1` [Compound 196]: on 1b (BK) NS5bΔ21, the IC50 is < 990 nM. In test [1], the EC50 fell in the range of 1000 to 9990 nM.

Turning to `CCN(c1cc2nn(-c3ccc(F)cc3)c(C(=O)NC)c2cc1OC(F)F)S(C)(=O)=O` [Compound 78, 5-(Difluoromethoxy)-6-[ethyl(methylsulfonyl)amino]-2-(4-fluorophenyl)-N-methyl-2H-indazole-3-carboxamide], the IC50 at 1b (BK) NS5bΔ21 was 10000 to 50000 nM. For the same molecule, in test [1], the EC50 lay within 1000 to 9990 nM.

For `CNC(=O)c1c2cc(C3CC3)c(N(CCCN3C(=O)[C@H]4CCCC[C@H]4C3=O)S(C)(=O)=O)cc2nn1-c1ccc(Br)cc1` [Compound 209], the IC50 on 1b (BK) NS5bΔ21 was < 990 nM. For the same molecule, the EC50 in test [1] is < 990 nM.

As for `CCCc1cc2c(C(=O)NC)n(-c3ccc(F)cc3)nc2cc1N(CC)S(C)(=O)=O` [Compound 145], the IC50 on 1b (BK) NS5bΔ21 fell in the range of 1000 to 9990 nM. Also, in test [1], the 50% effective concentration (EC50) lay in the range of 1000 to 9990 nM.

For the molecule `CCN(C(C)=O)c1cc2nn(-c3ccc(Br)cc3)c(C(=O)NC)c2cc1C1CC1` [Compound 48, 6-[Acetyl(ethyl)amino]-2-(4-bromophenyl)-5-cyclopropyl-N-methyl-2H-indazole-3-carboxamide], the IC50 at 1b (BK) NS5bΔ21 fell in the range of 10000 to 50000 nM. Besides, the EC50 in test [1] is 1000 to 9990 nM.

`CNC(=O)c1c2cc(C3CC3)c(N(CCCNC(=O)CCN)S(C)(=O)=O)cc2nn1-c1ccc(Br)cc1` [Compound 61, 6-{[3-(β-Alanylamino)propyl](methylsulfonyl)amino}-2-(4-bromophenyl)-5-cyclopropyl-N-methyl-2H-indazole-3-carboxamide]: the IC50 at 1b (BK) NS5bΔ21 was < 990 nM. In test [1], the EC50 fell in the range of 1000 to 9990 nM.

Turning to `CNC(=O)c1c2cc(C3CC3)c(N(CCCN(C)C)S(C)(=O)=O)cc2nn1-c1ccc(Cl)cc1` [Compound 199], the IC50 on 1b (BK) NS5bΔ21 fell in the range of 1000 to 9990 nM. Moreover, the EC50 in test [1] is < 990 nM.

In the case of `CCN(c1cc2nn(-c3ccc(F)cc3)c(C(=O)NC)c2cc1C#CCO)S(C)(=O)=O` [Compound 75, 6-[Ethyl(methylsulfonyl)amino]-2-(4-fluorophenyl)-5-(3-hydroxyprop-1-yn-1-yl)-N-methyl-2H-indazole-3-carboxamide], on 1b (BK) NS5bΔ21, the IC50 is 1000 to 9990 nM. In test [1], the EC50 lay within 10000 to 50000 nM.

`CNC(=O)c1c2cc(C3CC3)c(N(CCCOC(=O)c3cnccn3)S(C)(=O)=O)cc2nn1-c1ccc(Oc2ccc(F)cc2)cc1` [Compound 118]: the IC50 at 1b (BK) NS5bΔ21 is < 990 nM. Moreover, the EC50 in test [1] is < 990 nM.

Consider `CNC(=O)c1c2cc(C3CC3)c(N(CCCC(=O)OC)S(C)(=O)=O)cc2nn1-c1ccc(Cl)cc1` [Compound 207], for which, on 1b (BK) NS5bΔ21, the IC50 was < 990 nM. Moreover, in test [1], the EC50 fell in the range of 1000 to 9990 nM.

On to `CNC(=O)c1c2cc(C3CC3)c(N(CCC3CCOC3)S(C)(=O)=O)cc2nn1-c1ccc(Cl)cc1` (stereo not shown) [Compound 257], for which the IC50 on 1b (BK) NS5bΔ21 was 1000 to 9990 nM. Moreover, the EC50 in test [1] was < 990 nM.

As to `CCN(c1cc2nn(-c3ccc(Oc4ccc(F)cc4)cc3)c(C(=O)NC)c2cc1C1CC1)S(C)(=O)=O` [Compound 23], the IC50 at 1b (BK) NS5bΔ21 was < 990 nM. The EC50 in test [1] is < 990 nM.

As to `CNC(=O)c1c2cc(C3CC3)c(N(CCCC(=O)O)S(C)(=O)=O)cc2nn1-c1ccc(Cl)cc1` [Compound 208], the concentration for half-maximal inhibition (IC50) on 1b (BK) NS5bΔ21 was < 990 nM. For the same molecule, the EC50 in test [1] was in the range of 10000 to 50000 nM.

For `CCN(c1cc2nn(-c3ccc(F)cc3)c(C(=O)NC)c2cc1/C=C\CO)S(C)(=O)=O` [Compound 76, 6-[ethyl(methylsulfonyl)amino]-2-(4-fluorophenyl)-5[(1Z)-3-hydroxyprop-1-en-1-yl]-N-methyl-2H-indazole-3-carboxamide], on 1b (BK) NS5bΔ21, the IC50 fell in the range of 10000 to 50000 nM. In test [1], the EC50 is 1000 to 9990 nM.

Regarding `CNC(=O)c1c2cc(C3CC3)c(N(CCCC(=O)OCOC(=O)C(C)(C)C)S(C)(=O)=O)cc2nn1-c1ccc(Br)cc1` [Compound 94, [(2,2-dimethylpropanoyl)oxy]methyl 4-{[2-(4-bromophenyl)-5-cyclopropyl-3-(methylcarbamoyl)-2H-indazol-6-yl](methylsulfonyl)amino}butanoate], the IC50 on 1b (BK) NS5bΔ21 is < 990 nM. Besides, the 50% effective concentration (EC50) in test [1] fell in the range of 1000 to 9990 nM.

For the molecule `CNC(=O)c1c2cc(C3CC3)c(N(CCO)S(C)(=O)=O)cc2nn1-c1ccc(Nc2ccc(F)cc2)cc1` [Compound 19], at 1b (BK) NS5bΔ21, the IC50 is < 990 nM. Besides, the EC50 in test [1] is < 990 nM.

For the molecule `CNC(=O)c1c2cc(C3CC3)c(N(CCCNCc3cccnc3)S(C)(=O)=O)cc2nn1-c1ccc(Br)cc1` [Compound 211], the IC50 at 1b (BK) NS5bΔ21 was < 990 nM. Further, the half-maximal effective concentration (EC50) in test [1] was in the range of 1000 to 9990 nM.

As for `CNC(=O)c1c2cc(C3CC3)c(N(CC3CC3)S(C)(=O)=O)cc2nn1-c1ccc(Br)cc1` [Compound 231], the concentration for half-maximal inhibition (IC50) on 1b (BK) NS5bΔ21 was < 990 nM. Also, the EC50 in test [1] was < 990 nM.

With `CCC(c1cc2nn(-c3ccc(C)cc3)c(C(=O)NC)c2cc1C1CC1)S(C)(=O)=O` (racemic) [Compound 86, 5-cyclopropyl-N-methyl-2-(4-methylphenyl)-6-[1-(methylsulfonyl)propyl]-2H-indazole-3-carboxamide], the IC50 at 1b (BK) NS5bΔ21 lay within 10000 to 50000 nM. In addition, in test [1], the EC50 was 1000 to 9990 nM.

As to `CNC(=O)c1c2cc(C3CC3)c(N(CCCOC(C)=O)S(C)(=O)=O)cc2nn1-c1ccc(Nc2ccc(F)cc2)cc1` [Compound 116], the concentration for half-maximal inhibition (IC50) on 1b (BK) NS5bΔ21 is < 990 nM. In test [1], the EC50 was < 990 nM.

Consider `CCN(c1cc2nn(-c3ccc(F)cc3)c(C(=O)NC)c2cc1C#CC(C)(C)O)S(C)(=O)=O` [Compound 149], for which the IC50 at 1b (BK) NS5bΔ21 is < 990 nM. Moreover, the EC50 in test [1] lay within 10000 to 50000 nM.

For the molecule `CNC(=O)c1c2cc(C3CC3)c(N(CCCOC(=O)c3ccccc3C(=O)O)S(C)(=O)=O)cc2nn1-c1ccc(Oc2ccc(F)cc2)cc1` [Compound 115], the half-inhibitory concentration (IC50) at 1b (BK) NS5bΔ21 was < 990 nM. In test [1], the EC50 lay in the range of 1000 to 9990 nM.

As to `CNC(=O)c1c2cc(C3CC3)c(-c3c(C)noc3C)cc2nn1-c1ccc(F)cc1` [Compound 83, 5-Cyclopropyl-6-(3,5-dimethyl-1,2-oxazol-4-yl)-2-(4-fluorophenyl)-N-methyl-2H-indazole-3-carboxamide], the IC50 on 1b (BK) NS5bΔ21 lay in the range of 10000 to 50000 nM. In addition, in test [1], the EC50 is 1000 to 9990 nM.

With `CNC(=O)c1c2cc(C3CC3)c(N(CCCN(C)C)S(C)(=O)=O)cc2nn1-c1ccc(Br)cc1` [Compound 65, 2-(4-Bromophenyl)-5-cyclopropyl-6-{[3-(dimethylamino)propyl] (methylsulfonyl)amino}-N-methyl-2H-indazole-3-carboxamide], the IC50 at 1b (BK) NS5bΔ21 was < 990 nM. For the same molecule, in test [1], the EC50 was < 990 nM.

As to `CNC(=O)c1c2cc(C3CC3)c(N(CCCNC(=O)[C@@H]3CC(=O)N(C)C3)S(C)(=O)=O)cc2nn1-c1ccc(Br)cc1` (racemic) [Compound 182], the IC50 on 1b (BK) NS5bΔ21 is < 990 nM. Besides, the EC50 in test [1] lay in the range of 1000 to 9990 nM.

As for `CNC(=O)c1c2cc(C3CC3)c(N(Cc3ccncc3)S(C)(=O)=O)cc2nn1-c1ccc(Br)cc1` [Compound 140], the 50% inhibitory concentration (IC50) at 1b (BK) NS5bΔ21 was < 990 nM. For the same molecule, in test [1], the EC50 was < 990 nM.

As to `CCN(c1cc2nn(-c3ccc(NCC(C)C)cc3)c(C(=O)NC)c2cc1OC)S(C)(=O)=O` [Compound 124], on 1b (BK) NS5bΔ21, the IC50 fell in the range of 1000 to 9990 nM. Besides, in test [1], the EC50 fell in the range of 1000 to 9990 nM.

Consider `C=C(C)c1ccc(-n2nc3cc(N(CC)S(C)(=O)=O)c(C4CC4)cc3c2C(=O)NC)cc1` [Compound 192], for which the IC50 at 1b (BK) NS5bΔ21 was 1000 to 9990 nM. For the same molecule, the concentration for a half-maximal effect (EC50) in test [1] was < 990 nM.

`CNC(=O)c1c2cc(C3CC3)c(N(CCCC(=O)Oc3ccccc3)S(C)(=O)=O)cc2nn1-c1ccc(Br)cc1` [Compound 93, phenyl 4-{[2-(4-bromophenyl)-5-cyclopropyl-3-(methylcarbamoyl)-2H-indazol-6-yl](methylsulfonyl)amino}butanoate]: the IC50 at 1b (BK) NS5bΔ21 is < 990 nM. In test [1], the 50% effective concentration (EC50) fell in the range of 1000 to 9990 nM.

For the molecule `CCC(C)OC(=O)CCCN(c1cc2nn(-c3ccc(Br)cc3)c(C(=O)NC)c2cc1C1CC1)S(C)(=O)=O` (stereo not shown) [Compound 92, butan-2-yl 4-{[2-(4-bromophenyl)-5-cyclopropyl-3-(methylcarbamoyl)-2H-indazol-6-yl](methylsulfonyl)amino}butanoate], the IC50 on 1b (BK) NS5bΔ21 was < 990 nM. In addition, in test [1], the EC50 is < 990 nM.

Turning to `CCOC(=O)CCCC(c1cc2nn(-c3ccc(C)cc3)c(C(=O)NC)c2cc1C1CC1)S(C)(=O)=O` (racemic) [Compound 85, ethyl 5-[5-cyclopropyl-3-(methylcarbamoyl)-2-(4-methylphenyl)-2H-indazol-6-yl]-5-(methylsulfonyl)pentanoate], the IC50 at 1b (BK) NS5bΔ21 was 10000 to 50000 nM. For the same molecule, the EC50 in test [1] was 10000 to 50000 nM.

Turning to `CCN(c1cc2nn(-c3ccc(F)cc3)c(C(=O)NC)c2cc1C1CCCC1)S(C)(=O)=O` [Compound 74, 5-cyclopentyl-6-[ethyl(methylsulfonyl)amino]-2-(4-fluorophenyl)-N-methyl-2H-indazole-3-carboxamide], on 1b (BK) NS5bΔ21, the IC50 is 10000 to 50000 nM. Besides, in test [1], the EC50 was 1000 to 9990 nM.

Consider `CNC(=O)c1c2cc(C3CC3)c(N(CCN3CCCCC3)S(C)(=O)=O)cc2nn1-c1ccc(Oc2ccc(F)cc2)cc1` [Compound 114], for which the IC50 on 1b (BK) NS5bΔ21 is 1000 to 9990 nM. Moreover, in test [1], the EC50 lay within 1000 to 9990 nM.

Regarding `CNC(=O)c1c2cc(C3CC3)c(N(CCCNC(=O)[C@H]3CCC[C@H]3C(=O)O)S(C)(=O)=O)cc2nn1-c1ccc(Br)cc1` [Compound 63, (1R,2S)-2-[(3-{[2-(4-Bromophenyl)-5-cyclopropyl-3-(methylcarbamoyl)-2H-indazol-6-yl](methylsulfonyl)amino}propyl)carbamoyl]cyclopentanecarboxylic acid], the IC50 on 1b (BK) NS5bΔ21 is < 990 nM. Also, in test [1], the EC50 was < 990 nM.

`CCc1cc2c(C(=O)NC)n(-c3ccc(F)cc3)nc2cc1N(CC)S(C)(=O)=O` [Compound 72, 5-ethyl-6-[ethyl(methylsulfonyl)amino]-2-(4-fluorophenyl)-N-methyl-2H-indazole-3-carboxamide]: the IC50 at 1b (BK) NS5bΔ21 is 1000 to 9990 nM. The EC50 in test [1] was in the range of 1000 to 9990 nM.
